Measured values taken from patent US10836725B2, “Modulators of the integrated stress pathway” (Calico Life Sciences LLC, priority 2016, dated 2020).

Test system: ATF4 luciferase reporter
Test: ATF4-Luc assay in HEK293T cells carrying the ATF4 luciferase reporter (in vitro model of VWMD)
Type: cell-based, human
Details: Homo sapiens, HEK-293T, 1 μg/mL tunicamycin, 7 hours, luminescence (One Glo)
Method: In order to test exemplary compounds of the invention in a cellular context, a stable VWMD cell line was first constructed. The ATF4 reporter was prepared by fusing the human full-length ATF4 5′-UTR (NCBI Accession No. BC022088.2) in front of the firefly luciferase (FLuc) coding sequence lacking the initiator methionine as described in Sidrauski et al (eLife 2013). The construct was used to produce recombinant retroviruses using standard methods and the resulting viral supernatant was used to transduce HEK293T cells, which were then subsequently selected with puromycin to generate a stable cell line.
HEK293T cells carrying the ATF4 luciferase reporter were plated on polylysine coated 384-well plates (Greiner Bio-one) at 30,000 cells per well. Cells were treated the next day with 1 μg/mL tunicamycin and 200 nM of a compound of Formula (I) for 7 hours. Luminescence was measured using One Glo (Promega) as specified by the manufacturer. Cells were maintained in DMEM with L-glutamine supplemented with 10% heat-inactivated FBS (Gibco) and Antibiotic-Antimycotic solution (Gibco).
Table 2 below summarizes the EC50 data obtained using the ATF4-Luc assay for exemplary compounds of the invention.

Compound	EC50 [nM]
O=C(COc1ccc(Cl)c(F)c1)NC12CCC(C(=O)NCc3ccc(C(F)(F)F)cn3)(CC1)[C@H](O)C2 (single isomer, unassigned) [Compound 113]	< 250
O=C(COc1ccc(Cl)c(F)c1)NC12CCC(C(=O)NCc3ccc(C(F)(F)F)cn3)(CC1)[C@@H](O)C2 (single isomer, unassigned) [Compound 114]	< 250
O=C(COc1ccc(Cl)cc1)NC12CC(C(=O)NCCOc3ccc(Cl)cc3)(C1)C2 [Compound 100, 3-[2-(4-chlorophenoxy)acetamido]-N-[2-(4-chlorophenoxy)ethyl]bicyclo[1.1.1]-pentane-1-carboxamide]	< 250
Cc1cccc(OCCNC(=O)C23CC(NC(=O)COc4ccc(Cl)cc4)(C2)C3)c1 [Compound 101, 3-[2-(4-chlorophenoxy)acetamido]-N-[2-(3-methylphenoxy)ethyl]bicyclo[1.1.1]-pentane-1-carboxamide]	1000 to 2000
O=C(COc1ccc(Cl)cc1)NC12CC(C(=O)NCCOc3ccc(F)cc3)(C1)C2 [Compound 102, 3-[2-(4-chlorophenoxy)acetamido]-N-[2-(4-fluorophenoxy)ethyl]bicyclo[1.1.1]-pentane-1-carboxamide]	250 to 500
Cc1cc(OCCNC(=O)C23CC(NC(=O)COc4ccc(Cl)cc4)(C2)C3)ccc1Cl [Compound 103, N-[2-(4-chloro-3-methylphenoxy)ethyl]-3-[2-(4-chlorophenoxy)acetamido]-bicyclo[1.1.1]pentane-1-carboxamide]	250 to 500
O=C(COc1ccc(Cl)cc1)NC12CC(C(=O)NCCOc3cccc(F)c3)(C1)C2 [Compound 104, 3-[2-(4-chlorophenoxy)acetamido]-N-[2-(3-fluorophenoxy)ethyl]bicyclo-[1.1.1]pentane-1-carboxamide]	250 to 500
Cc1ccc(OCCNC(=O)C23CC(NC(=O)COc4ccc(Cl)cc4)(C2)C3)cc1 [Compound 105, 3-[2-(4-chlorophenoxy)acetamido]-N-[2-(4-methylphenoxy)ethyl]bicyclo-[1.1.1]pentane-1-carboxamide]	500 to 1000
O=C(COc1ccc(Cl)c(F)c1)NC12CCC(C(=O)NCc3ccc(C(F)(F)F)cn3)(CC1)C(O)C2 (stereo not shown) [Compound 106]	< 250
O=C(COc1ccc(Cl)c(F)c1)NC12CCC(C(=O)NCCOc3ccc(Cl)cc3)(CC1)C(O)C2 (stereo not shown) [Compound 107, 4-[2-(4-chloro-3-fluorophenoxy)acetamido]-N-[2-(4-chlorophenoxy)ethyl]-2-hydroxybicyclo[2.2.2]octane-1-carboxamide]	< 250
O=C(COc1ccc(Cl)c(F)c1)NC12CCC(C(=O)NCc3ccc(Cl)cn3)(CC1)C(O)C2 (stereo not shown) [Compound 108, 4-[2-(4-chloro-3-fluorophenoxy)acetamido]-N-[(5-chloropyridin-2-yl)methyl]-2-hydroxybicyclo[2.2.2]octane-1-carboxamide]	< 250
CC(C)c1cc(CNC(=O)C23CCC(NC(=O)COc4ccc(Cl)c(F)c4)(CC2)CC3O)on1 (stereo not shown) [Compound 109, 4-[2-(4-chloro-3-fluorophenoxy)acetamido]-2-hydroxy-N-{[3-(propan-2-yl)-1,2-oxazol-5-yl]methyl}bicyclo[2.2.2]octane-1-carboxamide]	500 to 1000
O=C(COc1ccc(Cl)c(F)c1)NC12CCC(C(=O)NCc3ccc(C(F)(F)F)cc3)(CC1)C(O)C2 (stereo not shown) [Compound 110, 4-[2-(4-chloro-3-fluorophenoxy)acetamido]-2-hydroxy-N-{[4-(trifluoromethyl)phenyl]methyl}bicyclo[2.2.2]octane-1-carboxamide]	< 250
Cc1cc(C)c(CNC(=O)C23CCC(NC(=O)COc4ccc(Cl)c(F)c4)(CC2)CC3O)cn1 (stereo not shown) [Compound 111, 4-[2-(4-chloro-3-fluorophenoxy)acetamido]-N-[(4,6-dimethylpyridin-3-yl)methyl]-2-hydroxybicyclo[2.2.2]octane-1-carboxamide]	> 2000
O=C(COc1ccc(Cl)c(F)c1)NC12CCC(C(=O)NCc3cncc(F)c3)(CC1)C(O)C2 (stereo not shown) [Compound 112, 4-[2-(4-chloro-3-fluorophenoxy)acetamido]-N-[(5-fluoropyridin-3-yl)methyl]-2-hydroxybicyclo[2.2.2]octane-1-carboxamide]	> 2000
O=C(COc1ccc(Cl)c(F)c1)NC12CCC(C(=O)NCc3cocn3)(CC1)C(O)C2 (stereo not shown) [Compound 115, 4-[2-(4-chloro-3-fluorophenoxy)acetamido]-2-hydroxy-N-[(1,3-oxazol-4-yl)methyl]bicyclo[2.2.2]octane-1-carboxamide]	> 2000

Compound	EC50 [nM]
Cn1ccc(CNC(=O)C23CCC(NC(=O)COc4ccc(Cl)c(F)c4)(CC2)CC3O)n1 (stereo not shown) [Compound 116, 4-[2-(4-chloro-3-fluorophenoxy)acetamido]-2-hydroxy-N-[(1-methyl-1H-pyrazol-3-yl)methyl]bicyclo[2.2.2]octane-1-carboxamide]	> 2000
O=C(COc1ccc(Cl)c(F)c1)NC12CC(C(=O)NCc3ccc(Cl)cc3)(C1)C2 [Compound 117, 3-[2-(4-chloro-3-fluorophenoxy)acetamido]-N-[(4-chlorophenyl)methyl]bicyclo[1.1.1]pentane-1-carboxamide]	< 250
O=C(COc1ccc(Cl)c(F)c1)NC12CC(C(=O)NCc3ccc(C(F)(F)F)cn3)(C1)C2 [Compound 118, 3-[2-(4-chloro-3-fluorophenoxy)acetamido]-N-{[5-(trifluoromethyl)pyridin-2-yl]methyl}bicyclo[1.1.1]pentane-1-carboxamide]	< 250
Cc1cnc(CNC(=O)C23CCC(NC(=O)COc4ccc(Cl)c(F)c4)(CC2)CC3O)cn1 (stereo not shown) [Compound 119, 4-[2-(4-chloro-3-fluorophenoxy)acetamido]-2-hydroxy-N-[(5-methylpyrazin-2-yl)methyl]bicyclo[2.2.2]octane-1-carboxamide]	1000 to 2000
O=C(COc1ccc(Cl)c(F)c1)NC12CCC(C(=O)NCc3cc(C(F)(F)F)ccn3)(CC1)C(O)C2 (stereo not shown) [Compound 120, 4-[2-(4-chloro-3-fluorophenoxy)acetamido]-2-hydroxy-N-{[4-(trifluoromethyl)pyridin-2-yl]methyl}bicyclo[2.2.2]octane-1-carboxamide]	< 250
CS(=O)(=O)c1ccc(CNC(=O)C23CCC(NC(=O)COc4ccc(Cl)c(F)c4)(CC2)CC3O)nc1 (stereo not shown) [Compound 121, 4-[2-(4-chloro-3-fluorophenoxy)acetamido]-2-hydroxy-N-{[5-(methanesulfonyl)pyridin-2-yl]methyl}bicyclo[2.2.2]octane-1-carboxamide]	> 2000
O=C(COc1ccc(F)cc1)NC12CCC(C(=O)NCc3ccc(C(F)(F)F)cn3)(CC1)C(O)C2 (stereo not shown) [Compound 122, 4-[2-(4-fluorophenoxy)acetamido]-2-hydroxy-N-{[5-(trifluoromethyl)pyridin-2-yl]methyl}bicyclo[2.2.2]octane-1-carboxamide]	< 250
O=C(COc1ccc(F)cc1)NC12CCC(C(=O)NCc3ccc(C(F)(F)F)cc3)(CC1)C(O)C2 (stereo not shown) [Compound 123, 4-[2-(4-fluorophenoxy)acetamido]-2-hydroxy-N-{[4-(trifluoromethyl)phenyl]methyl}bicyclo[2.2.2]octane-1-carboxamide]	< 250
Cc1cccc(CNC(=O)C23CCC(NC(=O)COc4ccc(Cl)c(F)c4)(CC2)CC3O)c1 (stereo not shown) [Compound 124, 4-[2-(4-chloro-3-fluorophenoxy)acetamido]-2-hydroxy-N-[(3-methylphenyl)methyl]bicyclo[2.2.2]octane-1-carboxamide]	500 to 1000
Cc1ccc(CNC(=O)C23CCC(NC(=O)COc4ccc(Cl)c(F)c4)(CC2)CC3O)cc1 (stereo not shown) [Compound 125, 4-[2-(4-chloro-3-fluorophenoxy)acetamido]-2-hydroxy-N-[(4-methylphenyl)methyl]bicyclo[2.2.2]octane-1-carboxamide]	< 250
O=C(COc1ccc(Cl)c(F)c1)NC12CCC(C(=O)NCc3cc(F)cc(C(F)(F)F)c3)(CC1)C(O)C2 (stereo not shown) [Compound 126, 4-[2-(4-chloro-3-fluorophenoxy)acetamido]-N-{[3-fluoro-5-(trifluoromethyl)phenyl]methyl}-2-hydroxybicyclo[2.2.2]octane-1-carboxamide]	> 2000
COc1cccc(CNC(=O)C23CCC(NC(=O)COc4ccc(Cl)c(F)c4)(CC2)CC3O)c1 (stereo not shown) [Compound 127, 4-[2-(4-chloro-3-fluorophenoxy)acetamido]-2-hydroxy-N-[(3-methoxyphenyl)methyl]bicyclo[2.2.2]octane-1-carboxamide]	1000 to 2000
COc1ccc(CNC(=O)C23CCC(NC(=O)COc4ccc(Cl)c(F)c4)(CC2)CC3O)cc1 (stereo not shown) [Compound 128, 4-[2-(4-chloro-3-fluorophenoxy)acetamido]-2-hydroxy-N-[(4-methoxyphenyl)methyl]bicyclo[2.2.2]octane-1-carboxamide]	< 250
O=C(COc1ccc(Cl)c(F)c1)NC12CCC(C(=O)NCc3cccc(F)c3)(CC1)C(O)C2 (stereo not shown) [Compound 129, 4-[2-(4-chloro-3-fluorophenoxy)acetamido]-N-[(3-fluorophenyl)methyl]-2-hydroxybicyclo[2.2.2]octane-1-carboxamide]	250 to 500
O=C(COc1ccc(Cl)c(F)c1)NC12CCC(C(=O)NCc3ccc(F)cc3)(CC1)C(O)C2 (stereo not shown) [Compound 130, 4-[2-(4-chloro-3-fluorophenoxy)acetamido]-N-[(4-fluorophenyl)methyl]-2-hydroxybicyclo[2.2.2]octane-1-carboxamide]	< 250
